According to patent publication US12473250B2, “Molecular design of new antibiotics and antibiotic adjuvants against MCR strains” (priority 2019, dated 2025):
Values after ≈ are worked out from the molar mass of the structure shown.

Experiments:
Type in all cases: cell-based
[1] = system: various pathogens; experiment: microbe, parasite or virus in culture
Protocol: (§1) The MICs of the individual drugs and LC compound in combinations were determined using the broth microdilution technique as recommended by the CLSI whereby the two anti-microbial agents were added in an equal amount. (e.g.: 50 μL of Colistin: 50 μL of LC compounds). Diluted media containing compounds and antibiotics will be serially diluted 2-fold, and LC compounds and antibiotics alone or in combination will be assayed at fixed synergy concentration. In all cases, the lowest concentration at which no visible growth occurred was be recorded to be the MIC value of individual and combined antibacterial agents. The results were obtained after 24 hours of incubation.
Using the combination of LC100 and colistin, the activity of a broad range of strains was further tested (Table 7).

[2] = system: colistin resistant MCR (+) E. Coli strains; experiment: Synergy study: colistin MIC in the presence of compound
Protocol: as §1

[3] = system: colistin resistant MCR (+) E. Coli strains; experiment: MIC, broth microdilution, compound alone; conditions: for MIC: compound alone
Protocol: (§2) MIC experiments of the antimicrobial agents were determined by a modified broth microdilution method in accordance with the Clinical and Laboratory Standards Institute (CLSI) guidelines using 96 well culture plates. In brief, serial dilutions of all plates were prepared at different concentrations (μg). The inoculum suspension was prepared by adding isolated colonies from a 18-20 hours on TSA plate into phosphate buffer (0.31 mM, pH 7.2) or in water for injection (BBraun) and adjusting the suspension to a turbidity equivalent to 0.5 McFarland Standard. Each well contained a final bacterial concentration of approximately 5×10^5 colony forming units (CFU)/mL. The plate was covered and incubated at 35° C. for 24 hours. […] For the microdilution plates, turbidity in wells can be measured at OD600 using TECAN infinite M200Pro. MIC was determined as […] concentration that gives a 99 percent inhibition.

[4] = system: colistin resistant MCR (−) E. Coli strains; experiment: Synergy study: colistin MIC in the presence of compound; conditions: compound at 2 μg
Protocol: as §1

[5] = system: colistin resistant MCR (−) E. Coli strains; experiment: MIC, broth microdilution, compound alone
Protocol: as §2

[6] = Escherichia coli, 6083655967 [MCR 1+, E. Coli]
[7] = Escherichia coli, 6093560257 [MCR 1+, E. Coli, NDM-1]
[8] = Escherichia coli, 7023446108 [MCR 1−, E. Coli]
[9] = Escherichia coli, 7103531927 [MCR 1+, E. Coli, KPC+]
[10] = Escherichia coli, 7113636863 [MCR 1+, E. Coli, NDM-1]
[11] = Escherichia coli, E. Coli CRE 11804
[12] = Escherichia coli, E. Coli CRE 17528
[13] = Escherichia coli, E. Coli CRE 17232
[14] = strain 7028444207 (Table 1b), MCR (+)

C[C@@H](O)[C@H]1C(=O)N2C(C(=O)O)=C(S[C@@H]3CN[C@H](CNS(N)(=O)=O)C3)[C@H](C)[C@H]12 [Doripenem]
MIC [1, 6]: < 0.0975 µg/mL
MIC [1, 7]: 50 µg/mL
MIC ([1]; Escherichia coli, 6123520276 [MCR 1+, E. Coli]): < 0.0975 µg/mL
MIC ([1]; Escherichia coli, 7023436560 [MCR 1+, E. Coli]): < 0.0975 µg/mL
MIC ([1]; Escherichia coli, 7023444207 [MCR 1+, E. Coli]): < 0.0975 µg/mL
MIC [1, 8]: 0.0975 µg/mL
MIC ([1]; Escherichia coli, 7033607097 [MCR 1−, E. Coli]): < 0.0975 µg/mL
MIC [1, 9]: 1.56 µg/mL
MIC [1, 10]: 25 µg/mL
MIC [1, 11]: > 25 µg/mL
MIC [1, 12]: 1.56 µg/mL
MIC ([1]; KLPN CRE 7955): > 25 µg/mL
MIC ([1]; KLPN CRE 16260): > 50 µg/mL
MIC ([1]; KLPN CRE 27025): 25 µg/mL
MIC ([1]; KLPN CRE 55301): 1.56 µg/mL
MIC ([1]; PAE DM 4150): 6.25 µg/mL
MIC ([1]; PAE DM 23155): 0.195 µg/mL
MIC ([1]; PAE DM 23257): 0.78 µg/mL
MIC ([1]; PAE DM 23376): 0.78 µg/mL
MIC ([1]; PAE DR 4877): 0.78 µg/mL
MIC ([1]; PAE DR 5790, ¼ MHB): 12.5 µg/mL
MIC ([1]; PAE DU 14476): > 25 µg/mL

C[C@@H](O)[C@H]1C(=O)N2C(C(=O)O)=C(S[C@@H]3CN[C@H](C(=O)Nc4cccc(C(=O)O)c4)C3)[C@H](C)[C@H]12 [Ertapenem]
MIC [1, 7]: 25 µg/mL
MIC [1, 9]: 12.5 µg/mL
MIC [1, 10]: > 50 µg/mL
MIC [1, 11]: 25 µg/mL
MIC [1, 13]: 1.56 µg/mL
MIC [1, 12]: > 25 µg/mL
MIC ([1]; KLPN CRE 7955): > 25 µg/mL
MIC ([1]; KLPN CRE 16260): > 50 µg/mL
MIC ([1]; KLPN CRE 55301): > 25 µg/mL
MIC ([1]; PAE DM 4150): > 25 µg/mL
MIC ([1]; PAE DM 23155): 12.5 µg/mL
MIC ([1]; PAE DM 23257): > 25 µg/mL
MIC ([1]; PAE DM 23376): > 25 µg/mL
MIC ([1]; PAE DR 4877): > 25 µg/mL
MIC ([1]; PAE DR 5790): > 25 µg/mL
MIC ([1]; PAE DU 14476): > 25 µg/mL

CC1(C)C=Cc2c(ccc3c2OCC(c2ccc(OCCCCN(Cc4ccccn4)Cc4ccccn4)cc2OCCCCN(Cc2ccccn2)Cc2ccccn2)C3)O1 (centres unmarked) [GLA-DPA]
concentration at which the compound shows synergy with colistin ([2]; against mcr-1 bacteria): 5 µg/mL
synergy with colistin ([2]; against mcr-1 bacteria, in words): restore the sensitivity of E. coli with mcr-1 to colistin
antimicrobial activity when used alone ([3]; colistin resistant bacteria, in words): limited antimicrobial activity

COc1c(N2CCNC(C)C2)c(F)cc2c(=O)c(C(=O)O)cn(C3CC3)c12 (centres unmarked) [Gatifloxacin]
MIC ([1]; ACBA 1003 (CI)): 12.5 µg/mL
MIC ([1]; ACBA 1004 (CI)): 12.5 µg/mL
MIC ([1]; ACBA 1005 (CI)): 6.25 µg/mL
MIC ([1]; ACBA 1006 (CI)): 6.25 µg/mL
MIC ([1]; ACBA 1010 (CI)): < 0.098 µg/mL
MIC [1, 6]: 12.5 µg/mL
MIC [1, 7]: 0.78 µg/mL
MIC [1, 8]: 3.12 µg/mL
MIC [1, 9]: < 0.0975 µg/mL
MIC [1, 10]: 50 µg/mL
MIC ([1]; Escherichia coli, ATCC8739, E. Coli ATCC 8739): 0.024 µg/mL
MIC ([1]; Escherichia coli, ATCC10536, E. Coli ATCC 10536): 0.012 µg/mL
MIC ([1]; Escherichia coli, ATCC25922, E. Coli ATCC 25922): 0.012 µg/mL
MIC [1, 11]: < 0.015 µg/mL
MIC [1, 13]: 12.5 µg/mL
MIC [1, 12]: 25 µg/mL
MIC ([1]; Escherichia coli, E. Coli CRE 19211): 25 µg/mL
MIC ([1]; Escherichia coli, E. Coli CRE 34685): 0.195 µg/mL
MIC ([1]; KLPN ATCC 4352): < 0.049 µg/mL
MIC ([1]; KLPN ATCC 10031): < 0.049 µg/mL
MIC ([1]; KLPN ATCC 27736): < 0.049 µg/mL
MIC ([1]; KLPN CRE 7955): 100 µg/mL
MIC ([1]; KLPN CRE 15588): 25 µg/mL
MIC ([1]; KLPN CRE 16260): 3.12 µg/mL
MIC ([1]; KLPN CRE 27025): 3.12 µg/mL
MIC ([1]; KLPN CRE 55301): 25 µg/mL
MIC ([1]; PAE ATCC 9027): 0.78 µg/mL
MIC ([1]; PAE ATCC 27853): 1.56 µg/mL
MIC ([1]; PAE DM 23155): 1.56 µg/mL
MIC ([1]; PAE DM 23257): 0.78 µg/mL
MIC ([1]; PAE DM 23376): 1.56 µg/mL
MIC ([1]; PAE DR 4877): 25 µg/mL
MIC ([1]; PAE DR 5790): 25 µg/mL
MIC ([1]; PAE DU 14476): 25 µg/mL

CCN(CC)CCCCOc1ccc(C2COc3c(ccc4c3C=CC(C)(C)O4)C2)c(OCCCCN(CC)CC)c1 (centres unmarked) [LC105]
Colistin MIC in the presence of the compound ([2]; strain 6075066346, MCR(+), compound at 12.5 μg): 1.56 µg/mL
Colistin MIC in the presence of the compound ([2]; strain 6083655967, MCR(+), compound at 12.5 μg): 0.78 µg/mL
Colistin MIC in the presence of the compound ([2]; strain 6103645107, MCR(+), compound at 12.5 μg): 1.56 µg/mL
Colistin MIC in the presence of the compound ([2]; strain 6123520276, MCR(+), compound at 12.5 μg): 1.56 µg/mL
Colistin MIC in the presence of the compound ([2]; strain 7013177695, MCR(+), compound at 12.5 μg): 0.78 µg/mL
Colistin MIC in the presence of the compound ([2]; strain 7023436560, MCR(+), compound at 12.5 μg): 1.56 µg/mL
Colistin MIC in the presence of the compound ([2]; strain 7023444207, MCR(+), compound at 12.5 μg): 0.78 µg/mL
MIC ([3]; strain 6075066346, MCR (+)): 25 µg/mL (≈ 43.2 µM)
MIC ([3]; strain 6083655967, MCR (+)): 25 µg/mL (≈ 43.2 µM)
MIC ([3]; strain 6103645107, MCR (+)): 25 µg/mL (≈ 43.2 µM)
MIC ([3]; strain 6123520276, MCR (+)): 25 µg/mL (≈ 43.2 µM)
MIC ([3]; strain 7013177695, MCR (+)): 25 µg/mL (≈ 43.2 µM)
MIC ([3]; strain 7023436560, MCR (+)): 25 µg/mL (≈ 43.2 µM)
MIC [3, 14]: 25 µg/mL (≈ 43.2 µM)

CCN(CC)CCCCOc1ccc(/C=C/C(=O)c2ccc(OCCCCN(CC)CC)cc2O)cc1 [LC107]
Colistin MIC in the presence of the compound ([2]; strain 6075066346, MCR(+), compound at 10 μg (Table 2a: 10 ug/ml)): 3.125 µg/mL
Colistin MIC in the presence of the compound ([2]; strain 6083655967, MCR(+), compound at 10 μg (Table 2a: 10 ug/ml)): 3.125 µg/mL
Colistin MIC in the presence of the compound ([2]; strain 6103645107, MCR(+), compound at 10 μg (Table 2a: 10 ug/ml)): 3.125 µg/mL
Colistin MIC in the presence of the compound ([2]; strain 6123520276, MCR(+), compound at 10 μg (Table 2a: 10 ug/ml)): 3.125 µg/mL
Colistin MIC in the presence of the compound ([2]; strain 7013177695, MCR(+), compound at 10 μg (Table 2a: 10 ug/ml)): 3.125 µg/mL
Colistin MIC in the presence of the compound ([2]; strain 7023436560, MCR(+), compound at 10 μg (Table 2a: 10 ug/ml)): 6.25 µg/mL
Colistin MIC in the presence of the compound ([2]; strain 7023444207, MCR(+), compound at 10 μg (Table 2a: 10 ug/ml)): 6.25 µg/mL
MIC ([3]; strain 6075066346, MCR (+)): >100 µg/mL
MIC ([3]; strain 6083655967, MCR (+)): >100 µg/mL
MIC ([3]; strain 6103645107, MCR (+)): >100 µg/mL
MIC ([3]; strain 6123520276, MCR (+)): >100 µg/mL
MIC ([3]; strain 7013177695, MCR (+)): >100 µg/mL
MIC ([3]; strain 7023436560, MCR (+)): >100 µg/mL
MIC [3, 14]: >100 µg/mL

CC(C)=CCc1c(OCCN(C)CCCN(C)C)ccc(C(=O)/C=C/c2ccc(OCCN(C)CCCN(C)C)cc2)c1O [LC140]
Colistin MIC in the presence of the compound ([4]; strain 6083672926, MCR(−)): 1.56 µg/mL
Colistin MIC in the presence of the compound ([4]; strain 7023446108, MCR(−)): 1.56 µg/mL
Colistin MIC in the presence of the compound ([4]; strain 7033607097, MCR(−)): 1.56 µg/mL
MIC ([5]; strain 6083672926, MCR (−)): 12.5 µg/mL (≈ 20.5 µM)
MIC ([5]; strain 7023446108, MCR (−)): 12.5 µg/mL (≈ 20.5 µM)
MIC ([5]; strain 7033607097, MCR (−)): 6.25 µg/mL (≈ 10.3 µM)
MIC ([3]; strain 6075066346, MCR (+)): 12.5 µg/mL (≈ 20.5 µM)
MIC ([3]; strain 6083655967, MCR (+)): 12.5 µg/mL (≈ 20.5 µM)
MIC ([3]; strain 7103531927, MCR (+)): 25 µg/mL (≈ 41.1 µM)

Cc1cc(OCCCCN(Cc2ccccn2)Cc2ccccn2)cc(OCCCCN(Cc2ccccn2)Cc2ccccn2)c1 [Orc-DPA]
concentration at which the compound shows synergy with colistin ([2]; against mcr-1 bacteria): 50 µg/mL
